Entries after “also recorded” stand apart in the source; their conditions may differ.
Assays:
70S ribosomes / EF-G = 70S ribosomes / EF-G (Escherichia coli, UniProt P0A7J7); settings: cited from earlier work
[1] = tested on: E. coli S30 lysate and luciferase mRNA; settings: bioluminescence; cited from earlier work
GAR RNA = settings: RNA without L11; read-out: Kd, affinity for the RNA alone; cited from earlier work
[2] = molecular target: T1, Thermotoga maritima ribosomes (Thermotoga maritima, UniProt P29395); settings: less than B. stearothermophilus ribosomes; cited from earlier work
T1 sequence (P29395 2-141 limits assumed): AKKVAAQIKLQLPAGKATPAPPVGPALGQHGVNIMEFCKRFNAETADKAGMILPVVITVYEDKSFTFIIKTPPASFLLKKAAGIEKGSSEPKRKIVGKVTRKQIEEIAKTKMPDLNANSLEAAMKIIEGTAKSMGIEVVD

50S subunits = 50S subunits (Escherichia coli, UniProt P0A7J7); settings: cited from earlier work
GTPase centre-59 mer = test: Filter binding assay of thiostrepton to GTPase centre RNA (96-well, displacement format); settings: read-out: dissociation constant for the thiostrepton/GTPase centre-59 mer complex
Experimental: Thiostrepton binding to GTPase centre RNA can be monitored by a filter binding assays (Uchiumi et al., 1995, Biol. Chem., 270(50):29889-93; Draper et al., 1988, Methods Enzymol., 164:203-20). The filter binding assay can be transformed to a 96-well format using Millipore MHAB (mixed cellulose ester) 96-well plates. The dissociation constant for the thiostrepton/GTPase centre-59 mer complex of 1 uM is in good accordance with the literature. Additionally, filter binding can show the cooperativity in binding of thiostrepton and L11. Thermotoga maritima ribosomes are known to be sensitive to thiostrepton (Londei et al., 1988, J. Bacteriol., 170(9):4353-60), although 100-fold less than B. stearothermophilus ribosomes. The affinity of thiostrepton for Thermotoga GTPase center RNA in vitro has not yet been determined.
^35S- or ^32P-labelled RNA is prepared by transcription in the presence of radiolabelled nucleotides. The labelled RNAs are purified by gel electrophoresis or chromatography by reverse-phase. […] Association constants between RNA and thiostrepton in the presence or absence of inhbitor are determined in 100 ul reactions containing 10 mM Tris-HCl (pH 7.4), 3 mM MgCl2, 175 mM NH4Cl and 5% v/v DMSO. […]
The relative amounts of RNA retained in the presence and absence of inhibitor can be determined by quantitation of the radioactivity on each filter. […]

intact ribosomes = intact ribosomes (Escherichia coli, UniProt P0A7J7); settings: higher than for 23S RNA; cited from earlier work
isolated L11 = isolated L11 (Escherichia coli, UniProt P0A7J7); settings: L11 without RNA; cited from earlier work
23S RNA = settings: equilibrium dialysis; read-out: dissociation constant of thiostrepton/23S RNA; cited from earlier work

Sequence of 70S ribosomes / EF-G (P0A7J7 2-142): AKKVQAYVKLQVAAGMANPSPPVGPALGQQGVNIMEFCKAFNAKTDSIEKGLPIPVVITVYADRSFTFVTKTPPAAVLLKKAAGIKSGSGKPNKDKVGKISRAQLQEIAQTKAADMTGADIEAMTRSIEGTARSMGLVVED
Sequence of isolated L11 (P0A7J7 whole entry): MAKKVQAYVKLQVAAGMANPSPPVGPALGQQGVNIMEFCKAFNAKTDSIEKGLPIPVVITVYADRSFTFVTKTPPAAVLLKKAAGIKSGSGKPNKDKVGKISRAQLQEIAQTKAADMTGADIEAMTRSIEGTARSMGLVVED
Sequence of 50S subunits (P0A7J7 2-142): as the sequence (P0A7J7 2-142) above
Sequence of intact ribosomes (P0A7J7 2-142): as above

In the case of `C/C=C(\NC(=O)c1csc(-c2csc(-c3ccc4c(n3)-c3csc(n3)[C@H]([C@@H](C)O)NC(=O)c3csc(n3)[C@H](C(C)C)NC(=O)c3csc(n3)/C(=C/C)NC(=O)[C@H]([C@@H](C)O)NC(=O)c3csc-4n3)n2)n1)C(=O)NC[C@@H](C)O` [micrococcin], the “effect on hydrolysis of GTP by EF-G” value (70S ribosomes / EF-G) is listed as “stimulates GTP hydrolysis by EF-G”.

In the case of `O=C(N[C@H](CO)[C@H](O)c1ccc([N+](=O)[O-])cc1)C(Cl)Cl` [chloramphenicol], the “yield of active luciferase compared to the control” value [1] is given as “decrease in yield of active luciferase”.

For `C=C(NC(=O)C(=C)NC(=O)c1csc(C2=N[C@@H]3c4csc(n4)[C@H]4NC(=O)c5csc(n5)[C@H]([C@](C)(O)[C@@H](C)O)NC(=O)[C@H]5CSC(=N5)/C(=C/C)NC(=O)[C@H]([C@@H](C)O)NC(=O)c5csc(n5)[C@]3(CC2)NC(=O)[C@H](C)NC(=O)C(=C)NC(=O)[C@H](C)NC(=O)[C@H]([C@@H](C)CC)N[C@@H]2C=Cc3c([C@H](C)O)cc(nc3[C@H]2O)C(=O)O[C@@H]4C)n1)C(N)=O` [thiostrepton], the “yield of active luciferase compared to the control” value [1] is given as “decrease in yield of active luciferase”, the “effect on hydrolysis of GTP by EF-G” value (70S ribosomes / EF-G) is given as “inhibits elongation factor G (EF-G)-dependent GTP hydrolysis; also recorded: inhibits hydrolysis of GTP by EF-G” and the Kd (GAR RNA) is given as 400 nM. For the same molecule, the “sensitivity of ribosomes to thiostrepton relative to B. stearothermophilus ribosomes” value [2] was 100 fold, the “binding to 50S subunits” value (50S subunits) was “binds essentially irreversibly to 50S subunits” and the Kd (GTPase centre-59 mer) was 1000 nM. For the same molecule, the “affinity to intact ribosomes relative to 23S RNA” value (intact ribosomes) was 100-1000 fold, the “binding to isolated L11” value (isolated L11) was “does not bind isolated L11” and the Kd (23S RNA) was 230 nM.
